Data as given in patent publication US20080262026A1, “Therapeutic Agents 684” (AstraZeneca AB, priority 2007, published 2008).
pIC50: −log10 of the molar value. Read-outs that look alike come from different tables or passages of the source.

Experiments:
CB1 receptor = molecular target: T1, CB1 receptor (Homo sapiens, UniProt P21554); experiment: [35S]-GTPγS binding assay, inhibition of CP55940 (EC80) stimulated activity in membranes of cells stably transfected with the CB1 gene; assay type: biochemical
T1 construct: expressed in transfected cells
T1 sequence (P21554 whole entry): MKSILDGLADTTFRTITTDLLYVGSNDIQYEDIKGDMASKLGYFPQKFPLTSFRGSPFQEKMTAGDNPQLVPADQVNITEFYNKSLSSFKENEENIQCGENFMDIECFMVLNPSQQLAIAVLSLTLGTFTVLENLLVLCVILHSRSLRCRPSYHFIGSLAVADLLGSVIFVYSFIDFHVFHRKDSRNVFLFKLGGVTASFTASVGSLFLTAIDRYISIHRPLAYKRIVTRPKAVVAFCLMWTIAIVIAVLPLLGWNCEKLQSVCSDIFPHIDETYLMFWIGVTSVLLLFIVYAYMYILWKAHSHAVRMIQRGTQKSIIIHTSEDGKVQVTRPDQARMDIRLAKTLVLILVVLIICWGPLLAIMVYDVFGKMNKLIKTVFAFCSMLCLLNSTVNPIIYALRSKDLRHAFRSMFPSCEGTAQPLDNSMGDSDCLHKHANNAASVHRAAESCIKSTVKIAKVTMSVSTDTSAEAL
Experimental: 10 μg of membranes prepared from cells stably transfected with the CB1 gene were suspended in 200 μl of 100 mM NaCl, 5 mM MgCl2, 1 mM EDTA, 50 mM HEPES (pH 7.4), 1 mM DTT, 0.1% BSA and 100 μM GDP. To this was added an EC80 concentration of agonist (CP55940), the required concentration of test compound and 0.1 μCi [^35S]-GTPγS. The reaction was allowed to proceed at 30° C. for 45 min. Samples were then transferred on to GF/B filters using a cell harvester and washed with wash buffer (50 mM Tris (pH 7.4), 5 mM MgCl2, 50 mM NaCl). Filters were then covered with scintilant and counted for the amount of [^35S]-GTPγS retained by the filter.
Activity is measured in the absence of all ligands (minimum activity) or in the presence of an EC80 concentration of CP55940 (maximum activity). These activities are set as 0% and 100% activity respectively. At various concentrations of novel ligand, activity is calculated as a percentage of the maximum activity and plotted. The data are fitted using the equation y=A+((B−A)/1+((C/x)ÚD)) and the IC50 value determined as the concentration required to give half maximal inhibition of GTPγS binding under the conditions used.

[1] = Solubility in dimethyl sulfoxide; assay type: physicochemical; conditions: organic solvent dimethyl sulfoxide
From the text: The compounds of the present invention have improved solubility in organic solvents compared to compounds in the prior art. […] It would be expected that this increase in solubility in organic solvents would lead to improvements in bioavailability and ease of manufacture and formulation.

[2] = half maximal inhibition of GTPγS binding, EC80 concentration of agonist CP55940, 30° C. 45 min, read-out: IC50

SMILES: CCC/C=C/c1ccc(-c2c(C)c3c(n2-c2ccc(Cl)cc2Cl)CCN(N2CCCCC2)C3=O)cc1 [Example 5, 1-(2,4-dichlorophenyl)-3-methyl-2-{4-[pent-1-en-1-yl]phenyl}-5-piperidin-1-yl-1,5,6,7-tetrahydro-4H-pyrrolo[3,2-c]pyridin-4-one]
- pIC50 (CB1 receptor; [2]): 8.68

SMILES: Cc1c2c(n(-c3ccc(Cl)cc3Cl)c1-c1ccc(CCCCC(F)(F)F)cc1)CCN(N1CCCCC1)C2=O [Example 4, 1-(2,4-dichlorophenyl)-3-methyl-5-piperidin-1-yl-2-[4-(5,5,5-trifluoropentyl)phenyl]-1,5,6,7-tetrahydro-4H-pyrrolo[3,2-c]pyridin-4-one]
- pIC50 (CB1 receptor; [2]): 8.60

SMILES: Cc1c2c(n(-c3ccc(Cl)cc3Cl)c1-c1ccc(CN3CCC(F)(F)C3)cc1)CCN(N1CCCCC1)C2=O [Example 1, 1-(2,4-dichlorophenyl)-2-{4-[(3,3-difluoropyrrolidin-1-yl)methyl]phenyl}-3-methyl-5-piperidin-1-yl-1,5,6,7-tetrahydro-4H-pyrrolo[3,2-c]pyridin-4-one]
- pIC50 (CB1 receptor; [2]): 8.29

SMILES: Cc1c2c(n(-c3ccc(Cl)cc3Cl)c1-c1ccc(CN3CC(F)(F)C3)cc1)CCN(N1CCCCC1)C2=O [Example 2, 1-(2,4-dichlorophenyl)-2-{4-[(3,3-difluoroazetidin-1-yl)methyl]phenyl}-3-methyl-5-piperidin-1-yl-1,5,6,7-tetrahydro-4H-pyrrolo[3,2-c]pyridin-4-one]
- pIC50 (CB1 receptor; [2]): 8.12

SMILES: Cc1c2c(n(-c3ccc(Cl)cc3Cl)c1-c1ccc(Cl)cc1)CCN(N1CCCCC1)C2=O [Example 19 of WO03/027114, 2-(4-chlorophenyl)-1-(2,4-dichlorophenyl)-3-methyl-5-(1-piperidinyl)-1,5,6,7-tetrahydro-4H-pyrrolo-[3,2-c]pyridin-4-one]
- solubility in dimethyl sulfoxide [1]: insoluble

SMILES: Cc1c2c(n(-c3ccc(Cl)cc3Cl)c1-c1ccc(/C=C/CCC(F)(F)F)cc1)CCN(N1CCCCC1)C2=O [Example 3, 1-(2,4-dichlorophenyl)-3-methyl-5-piperidin-1-yl-2-{4-[5,5,5-trifluoropent-1-en-1-yl]phenyl}-1,5,6,7-tetrahydro-4H-pyrrolo[3,2-c]pyridin-4-one]
- pIC50 (CB1 receptor; [2]): 8.30

SMILES: CCCCCc1ccc(-c2c(C)c3c(n2-c2ccc(Cl)cc2Cl)CCN(N2CCCCC2)C3=O)cc1 [Example 6, 1-(2,4-dichlorophenyl)-3-methyl-2-(4-pentylphenyl)-5-piperidin-1-yl-1,5,6,7-tetrahydro-4H-pyrrolo[3,2-c]pyridin-4-one]
- pIC50 (CB1 receptor): 8.68
